Data reported in paper PMC8065212, “The active form of the influenza cap-snatching endonuclease inhibitor baloxavir marboxil is a tight binding inhibitor” (The Journal of Biological Chemistry, 2021).
Values joined by “and” are separate entries in the source; they are usually repeats but may differ in a detail not shown here. Identical values can stand only once. “Also recorded” adds a separate entry of the source.

What was measured:
[1] = test system: influenza virus; conditions: cited from earlier work
[2] = test system: influenza A I38 mutants; conditions: cited from earlier work
[3] = test system: influenza B I38 mutants; conditions: cited from earlier work
[4] = biological target: T1, FluB-ht PA I38T (Influenza B virus, UniProt Q5V8Z9, I38T); format: biochemical, Influenza B (B/Memphis/13/03)
[5] = biological target: T1, FluB-ht PA I38T; format: biochemical, Influenza B (B/Memphis/13/03); remark: listed apart in the source
[6] = biological target: T1, FluB-ht PA I38T; format: biochemical, Influenza B (B/Memphis/13/03); remark: listed apart in the source
[7] = test system: FluB-ht PA I38T; format: biochemical, Influenza B (B/Memphis/13/03)

SMILES | increase in EC50 values of mutant viruses [1] | increase in EC50 values with mutations at position I38 [2] | increase in EC50 values with mutations at position I38 [3] | BXA concentration at which an effect of preincubation is observed [4] | effect of preincubation length on activity [4] | inhibition of endonuclease activity by order of addition [5] | slope of plot of IC50 versus enzyme concentration [6] | decrease in inhibition (difference in IC50), PA I38T versus WT [7] | increase of Ki^app, PA I38T with respect to WT [7]
COC(=O)OCOc1c2n(ccc1=O)N([C@@H]1c3ccccc3SCc3c1ccc(F)c3F)[C@@H]1COCCN1C2=O [BXM, Baloxavir marboxil] | up to 50 fold | up to 50 fold | up to tenfold |  |  |  |  |  | 
O=C1c2c(O)c(=O)ccn2N([C@@H]2c3ccccc3SCc3c2ccc(F)c3F)[C@@H]2COCCN12 [BXA, baloxavir acid] |  |  |  | 600 nM | negligible effects; also recorded: time-independent | no inhibition; also recorded: not observed regardless of the order of addition | 0.58 and ~0.5 | approximately threefold decrease | ~18 fold
